Experiments:
[1] = target: cannabinoid (CB1) receptor; test: PWR ligand binding to native rat trigeminal ganglion membrane fragments; details: Figure 4, negative spectral shifts
[2] = system: chromatophore membranes; test: PWR ligand binding to deposited chromatophore membrane fragments; parameters: species or system Rhodopseudomonas sphaeroides
[3] = PWR ligand binding to bare sensor surface; details: bare sensor versus chromatophore membrane fragments

CCCCCCC(C)(C)c1ccc([C@@H]2C[C@H](O)CC[C@H]2CCCO)c(O)c1 [CP 55,940]
KD values compared with radioligand binding and lipid bilayer PWR studies [1]: excellent agreement

bovine serum albumin: control protein replacing cyt c2
changes in PWR spectral position (binding) ([2]; control protein replacing cyt c2, up to 100 μM protein): did not observe any measurable changes

Cc1c(C(=O)c2cccc3ccccc23)c2cccc3c2n1[C@H](CN1CCOCC1)CO3 [WIN 55,212–2]
KD values compared with radioligand binding and lipid bilayer PWR studies [1]: excellent agreement

B1: cyt c2: Reduced Rhodobacter capsulatus cytochrome (cyt) c2, isolated and purified (protein, UniProt P00094 22-137, looked up)
Cytochrome c2: GDAAKGEKEFNKCKTCHSIIAPDGTEIVKGAKTGPNLYGVVGRTAGTYPEFKYKDSIVALGASGFAWTEEDIATYVKDPGAFLKEKLDDKKAKTGMAFKLAKGGEDVAAYLASVVK
modifications: reduced
Kd ([2]; read-out: apparent binding constant (KD), PWR, reduced cyt c2, hyperbolic fit, minimum of three separate experiments): 2500 nM
binding weaker on bare sensor than on chromatophore fragments [3]: approximately 10 fold

Reference: paper PMC2783692 (Analytical biochemistry, 2009)
